The values that follow come from paper PMC11078216, “Discovery of potent and selective activity-based probes (ABPs) for the deubiquitinating enzyme USP30” (RSC Chemical Biology, 2024).

This assay concerns the target T1, ALDH1B1 (Homo sapiens, UniProt P30837).
T1 construct: endogenous in cells; host or cells: HEK293T
T1 sequence (P30837 18-517): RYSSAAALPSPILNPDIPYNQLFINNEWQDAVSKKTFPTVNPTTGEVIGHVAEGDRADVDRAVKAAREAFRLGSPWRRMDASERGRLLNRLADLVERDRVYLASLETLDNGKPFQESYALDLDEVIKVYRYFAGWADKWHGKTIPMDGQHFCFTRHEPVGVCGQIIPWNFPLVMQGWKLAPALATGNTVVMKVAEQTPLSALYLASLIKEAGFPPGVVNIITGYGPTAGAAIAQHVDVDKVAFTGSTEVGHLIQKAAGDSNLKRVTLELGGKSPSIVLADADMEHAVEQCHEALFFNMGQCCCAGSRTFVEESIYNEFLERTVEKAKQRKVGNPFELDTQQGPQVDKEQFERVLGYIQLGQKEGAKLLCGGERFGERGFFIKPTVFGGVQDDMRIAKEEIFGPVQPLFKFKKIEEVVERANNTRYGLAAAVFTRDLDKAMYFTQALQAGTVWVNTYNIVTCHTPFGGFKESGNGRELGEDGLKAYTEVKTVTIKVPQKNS
As to the kind of experiment: ABPP chemical proteomics (LC-MS/MS) in HEK293T cells. Format: cell-based. A digest of the protocol:
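Cellular target engagement was assessed by probe competition. Labelled HEK293T lysates (≥400 µg protein) underwent copper-catalysed click ligation for 1 h at room temperature. Biotinylated proteins were pulled down on NeutrAvidin agarose in 0.2% SDS/HEPES pH 8.0 for 3 h before LC-MS/MS quantification.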

Molecules are shown by their SMILES.

Regarding `N#CN1CC[C@@H](NC(=O)c2cc(-c3ccccc3Oc3ccc(N=[N+]=[N-])cc3)n[nH]2)C1` [IMP-2586], the “Difference (log2 fold change of enrichment)” value (IMP-2586 labelling vs DMSO, 30 nM, 10 min, HEK293T (Table S4, Fig.5c)) is given as 2.25.
As to `C#Cc1cccc(-c2cc(NC(=O)CC3CCN(C#N)C3)on2)c1` (stereo not shown) [IMP-2587], the “Difference (log2 fold change of enrichment)” value (IMP-2587 labelling vs DMSO, 30 nM, 10 min, HEK293T (Table S2, Fig.5a)) is 3.53.
Consider `N#CN1CC[C@H](CC(=O)Nc2cc(-c3cccc(Cl)c3)no2)C1` [compound 1, reference compound], for which the “Difference (log2 fold change of enrichment)” value (compound 1 out-competition with IMP-2587 labelling, HEK293T (Table S3, Fig.5b)) was -3.81.
As for `N#CN1CC[C@@H](NC(=O)c2cc(-c3ccccc3Oc3ccccc3)n[nH]2)C1` [compound 3, reference compound], for the setting “compound 3 out-competition with IMP-2586 labelling, HEK293T (Table S5, Fig.5d)”, the “Difference (log2 fold change of enrichment)” value is reported as -1.78.
